# According to patent US7396643B2, “Method for the screening, the detection and/or the quantification of transcriptional factors” (Eppendorf Array Technologies, S.A., priority 2000, dated 2008):
# Tests used:
# Format in all cases: cell-based
# CREB = test: Microarray assay of P-CREB, influence of the spacer; settings: whole cell lysates of WI-38 VA 13 fibroblasts, 10 μg/ml forskolin
# Procedure: Step 1: Binding of the Probes on Glass.
# The binding of probes was obtained as described in the example 3 using the consensus sequence of NF-KB or CREB alone or with a spacer of 50, 100, 150 and 250 bp constructed from the sequence given in example 1.
# Step 2 :Binding of NFκB on the Double Strand Probe Fixed on Micro-array
# This assay was performed with whole cell lysates from WI-38 VA 13 fibroblasts stimulated with IL-1β (a NFκB activator) or 10 μg/ml of forskolin(to activate CREB). The control was 20 μl of lysis buffer mixed with 30 μl of binding buffer.
# Steps 3, 4 and 5: Binding of Antibodies and Detection
# The binding of the primary anti-NFκB and anti-PCREB antibodies was then used for reaction on the factors followed by a second gold labelled antibody and a calorimetric detection as in example 3. […] The values for P-CREB with unstimulated cells were 5.5 and 4 respectively with no spacer and with a 100 base spacer. The values for stimulated cells were respectively of 7 and 21 respectively with no spacer and a spacer of 100 bases pairs.
# NFκB = test: Microarray assay for DNA-binding activity of NFκB in nuclear cell extracts; settings: nuclear extracts of WI-38 VA 13 fibroblasts; anti-p50, gold-labelled second antibody, silver; unstimulated cells gave 10
# Procedure: Step 1: Binding of the Probes on Glass
# Activated glass slides bearing aldehyde groups were purchased from AAT (Belgium).
# The slides were first incubated in 0.8 ml of a 50 μg/ml streptavidin solution in a 10 mM phosphate buffer (pH 7.4) containing 10 mM NaCl (PBS10 buffer). After 1 h incubation at 20° C., the plates were washed 3 times for 2 min in PBS150 containing 0.02% Tween 20 and then 2 times 2 min with water. The plates were then incubated for 2 h at 20° C. in 20 ml of PBS150 solution containing 10% non fat dried milk and then washed 5 times 2 min in PBS150 solution.
# Spotting was performed with the NFκB consensus probe or with the CREB consensus probe as in example 1. The capture probes were printed onto the microscopic slides with a home made robotic device. 250 μm pins from Genetix (UK) were used. The spots have an average of 400 μm in diameter and the volume dispensed is about 1 nl. The concentration of probes used was 3000 nmolaire. […]
# There was no signal for the negative control, while in nuclear cell extracts, activated NFκB is detectable in cell stimulated with IL-1, with a much higher intensity than in unstimulated. The results obtained with the nuclear cell extracts have been quantitated, using a calorimetric microarray reader including the quantification software (AAT, Namur, Belgium). […]
# AP-1 = test: Microwell colorimetric DNA-binding assay, AP-1 (anti-c-fos); settings: nuclear extracts of WI-38 VA13 cells stimulated 30 min, 0.1 μg/ml PMA + 1 μM ionomycin, FIG. 2C
# Description: Step 1: Binding of the Double Strand Oligonucleotidic Probe on Multi-well Plates
# The spacer double strand nucleotide sequences were constructed from the following CMV sequence: • 5′[…] (SEQ ID NO:146) acting as a spacer was linked to a) the NFκB consensus oligonucleotide 5′[…]-3′ (SEQ ID NO:147) b) the CREB consensus oligonucleotide 5′[…]-3′ (SEQ ID NO:148) and c) the AP-1 consensus oligonucleotide 5′[…]-3′ (SEQ ID NO:149). In the example the spacer was of 100 based pairs. […] Plates are then washed and the amount of DNA fixed on streptavidin-coated plates was quantified using the picogreen assay (Molecular Probes, OR, USA). […]
# • cells were rinsed with cold PBS150 • cells were left swollen during 3 min in a cold hypotonic buffer (20 mM Hepes pH 7.4, 5 mM NaF, 1 mM Na2MoO4, 0.1 mM EDTA). • Cells were scrapped in 0.5 ml of hypotonic buffer containing 0.2% nonidet P40 and immediately centrifuged during 30 sec at maximal speed (13000 rpm). • The pellet was resuspended in 100 μl of lysis buffer (hypotonic buffer containing 20% glycerol, 0.4 M NaCl, phosphatases and proteases inhibitors cocktail). • The nuclear extract was agitated 30 min at 4° C., and then centrifuged for 10 min at maximal speed (13000 rpm) at 4° C. • The supernatant (=nuclear extract) was frozen at −80° C. and its proteic content was determined by the Bradford assay. […]
molecule,measurement,setting,value
C=C[C@@]1(C)CC(=O)[C@]2(O)[C@@]3(C)[C@@H](O)CCC(C)(C)[C@@H]3[C@H](O)[C@H](OC(C)=O)[C@@]2(C)O1 [forskolin],"value for P-CREB, stimulated cells, spacer of 100 base pairs","CREB; probe with 100 bp spacer, unstimulated cells gave 4",21
same,"value for P-CREB, stimulated cells, no spacer","CREB; probe with no spacer, unstimulated cells gave 5.5",7
IL-1: a NFκB activator used to stimulate cells,"spot intensity for activated NFκB, stimulated cells",NFκB,175 grey intensity
CCCCCCCCCCCCCC(=O)O[C@@H]1[C@@H](C)[C@@]2(O)[C@@H](C=C(CO)C[C@]3(O)C(=O)C(C)=C[C@@H]23)[C@@H]2C(C)(C)[C@]12OC(C)=O [PNA],signal obtained for the assay of c-fos (AP-1),AP-1,strongly induced
